# Source: publication PMC7440915, “Discovery of surrogate agonists for visceral fat Treg cells that modulate metabolic indices in vivo” (eLife, 2020)
# Where no end group is shown, it is not given here.
# System: HFD-fed B6.CD45.1^+ mice
# Test: Metabolic indices (ITT, GTT, fasting insulin, body weight) in HFD-fed mice after vTreg53 Treg transfer and immunization
# Type: in vivo, mouse
# Settings: n ≥ 7
# Excerpt: Figure 7. Immunization with Fat1562 following vTreg53 Treg transfer ameliorates HFD-induced insulin resistance. (A–F) Metabolic indices of mice treated as in Figure 6A (n ≥ 7). (A) Body weight. (B) Insulin tolerance test (ITT). (C) Area over curve for ITT analysis. (D) Glucose tolerance test (GTT). (E) Area under curve for GTT analysis. (F) Plasma insulin levels after 6 hr of fasting. Data shown are representative of at least two independent experiments. (G) Scheme of the anti-TNFα experiment. (H) Number of total Treg cells in VAT (n ≥ 5). (I) Number of CD11c^hi inflammatory macrophages in VAT (n ≥ 5). (J) ITT (n ≥ 5). (K) Area over curve for ITT analysis (n ≥ 5). Data are mean ± SD. Figure 7—figure supplement 1. Absolute blood glucose levels. ITT analysis of mice transferred with vTreg53 TCR-tg Tregs and immunized with adjuvant/Fat1562 or adjuvant alone. Data shown are representative of at least two independent experiments (n ≥ 5). [drawing 7]
# To assess early Treg proliferation following peptide stimulation in vivo, 0.4 million Treg cells were sorted from pooled Spl and LNs of 6-8wk-old male CD45.2^+ Tg^+ Foxp3-GFP^KI/y mice by Moflo, labeled by the CellTrace Violet dye (ThermoFisher Scientific), and were i.v.-injected into 6-8wk old male B6.CD45.1^+ mice. The next day, the recipient mice were injected with 200 µg peptides emulsified in CFA (CFA/peptides) s.c. on the lower back. Proliferation of clonotype^+ Tregs in the spleen was determined three days later. To examine the expansion of VAT-Treg cells by peptide immunization, we sorted 0.4 million Treg cells from pooled Spl/LNs of 6-8wk-old male CD45.2^+ Tg^+ Foxp3-GFP^KI/y mice and transferred them i.v. into 6-8wk old male B6.CD45.1^+ mice. Six weeks later, the recipient mice were immunized with 200 µg CFA/peptides s.c. on the lower back, and one week later were boosted with 100 μg IFA/peptides i.p. After another week, clonotype^+ CD45.2^+ Treg cells from the Spl/LNs or VAT of recipient mice were analyzed by flow cytometry and double-sorted for ultra-low-input RNA-seq. […] One week after the IFA/peptides injection, metabolic parameters (GTT, ITT, fasting plasma insulin levels) and the composition of different immunocytes were determined.
# For GTT, mice were fasted for 15 hr overnight, weighed, and tested for fasting blood-glucose concentrations. […] Blood-glucose levels were measured before and 20, 40, 60, 90, and 120 min after glucose injection. […] Blood-glucose levels were measured before and 20, 40, 60, 90, and 120 min after insulin injection, and were normalized to the blood-glucose levels before insulin injection. The area under the curve (for GTT) or area over the curve (for ITT) were calculated using GraphPad Prism 7.0.
sequence,measurement,setting,value
TMYKNPRPMAATG [Fat1562],glucose tolerance,"GTT, 2.0 g glucose per kg i.p., 15 hr fast",promoted glucose tolerance
same,insulin sensitivity,"ITT, 0.6 U insulin per kg i.p., 6 hr fast",improved systemic insulin sensitivity
same,body weight,adjuvant/Fat1562 vs adjuvant alone,similar
same,fasting plasma insulin levels,after 6 hr of fasting,reduced fasting plasma insulin levels
